“And” between values parts separate entries of the source, which are not always exact repeats. Equal values may be shown once.
Assays:
[1] = tested on: cerebellar granule neurons; assay: LK-induced death of cultured cerebellar granule neurons, viability by DAPI staining; assay type: cell-based, rat; settings: for neuroprotection against LK-induced neuronal death, in words: overall over 1, 5 and 25 μM; for protection at doses lower than 1 μM compared with 1 μM: 0.5, 0.25 and 0.1 μM
Experimental: Culturing and treatments of cerebellar granule neurons: Granule neuron cultures were obtained from dissociated cerebella of 6-7 day old Wistar rats as described previously (D'Mello et al., 1993). Cells were plated in Basal Eagle's Medium (BME) supplemented with 10% fetal calf serum (FCS), 25 mM KCl, 2 mM glutamine (Invitrogen), and 100 μg/ml gentamycin in poly-L-lysine coated 24-well dishes at a density 1×10^6 cells/well. Cytosine arabinofuranoside (10 μM) was added to the culture medium 18-22 h after plating to prevent replication of nonneuronal cells. Previous immunocytochemical analyses by our lab and other investigators have shown that these cultures have high purity containing over 95% granule neurons (Thangnipon et al., 2003; Kingsbury et al., 2005).
The neuronal cultures were maintained for 7-8 days prior to treatment. For treatment, the cells were rinsed once and then maintained in low K+ medium (serum-free BME medium; referred to as LK), or in the case of control cultures, in high K+ medium (serum-free BME medium supplemented with 20 mM KCl; referred to as HK). For treatments, the chemical compounds (dissolved in dimethylsulfoxide) were added directly to LK medium at the time of the switch from HK at concentrations of 1, 5, or 25 μM. Viability was assessed 24 hours by 4′,6′-diamidino-2-phenylindole hydrochloride (DAPI) staining (see below). Each compound was tested in duplicate (at each of the concentrations) and the experiment repeated at least 3 times.
The viability status of neuronal cultures treated with HK, LK, or LK medium supplemented with various compounds was evaluated by phase contrast microscopy and quantified by staining cell nuclei with DAPI as previously described (Yalcin et al., 2003; Morrison et al., 2006; Majzadeh et al., 2007)). Briefly, the cells were fixed in 4% paraformaldehyde for 20 min at 4° C. After washing in phosphate buffered saline, diamidino-2-phenylindole hydrochloride (DAPI; 1 μg/ml in phosphate buffered saline) was added for 15 min at room-temperature and viewed under ultraviolet light (260 nm). Cells with condensed or fragmented nuclei were scored as dead. Viability has been expressed as percent of control cultures, which were switched to HK medium). Statistical analysis was performed using an unpaired, two-tailed Student's T test, compared to mean neuronal survival of control cultures receiving LK treatment.
When cultured cerebellar granule neurons are switched from HK to LK medium about 50% of the cells underwent apoptosis within 24 h (D'Mello et al., 1993). The inventors utilized this widely used and recognized model to test a total of 20 different 1,4-benzoxazine derivatives for their ability to protect against LK-induced neuronal death. Each compound was tested at 3 different doses—1 μM, 5 μM and 25 μM and viability quantified by DAPI-staining. The highest does was included to test for possible toxicity effects of the compounds. Key results were confirmed using TUNEL staining, another reliable assay of apoptosis (FIG. 1). As shown in Table 1 and FIG. 1, the present invention identifies several compounds with significant neuroprotective effect. Two of the most protective compounds are HSB-13 and HSB-22, both with Ar=3′,5′-dibromo-4′-hydroxyphenyl (FIG. 1). […] Protection with this compound is lower than that observed with HSB-13 and HSB-22 at the two lower doses. […] To examine whether a higher level of protection could be observed at doses lower than 1 μM, the analyses of these compounds was extended to doses of 0.5, 0.25, and 0.1 μM.
When cultured cerebellar granule neurons are switched to LK medium, about 50% of the cells undergo apoptosis within 24 h. In this study, a total of 20 different 1,4-benzoxazine derivatives of the structure shown in FIG. 1 were tested for their ability to protect against LK-induced death of cerebellar granule neurons. Each compound was tested at 3 different doses —1 μM, 5 μM and 25 μM. […]

[2] = molecular target: GSK3β (Homo sapiens, UniProt P49841); settings: stated for the reference compound, no value; cited from earlier work
[3] = tested on: cultured neurons; settings: Chin et al., 2004, cited from earlier work
[4] = tested on: 3-NP-induced mouse model of Huntington's disease; settings: earlier work (Chin et al., 2004); cited from earlier work
[5] = Table 1, 1 μM in LK medium, 24 h, % of survival in control cultures in HK medium, LK alone 48%
[6] = Table 1, 5 μM in LK medium, 24 h, % of survival in control cultures in HK medium, LK alone 48%
[7] = Table 1, 25 μM in LK medium, 24 h, % of survival in control cultures in HK medium, LK alone 48%
[8] = Table 4, 1 μM in LK medium, % of survival in HK control cultures, LK alone 48.16±8.44%
[9] = Table 4, 5 μM in LK medium, % of survival in HK control cultures, LK alone 48.16±8.44%
[10] = Table 4, 25 μM in LK medium, % of survival in HK control cultures, LK alone 48.16±8.44%

Chain of GSK3β (P49841 whole entry, species assumed): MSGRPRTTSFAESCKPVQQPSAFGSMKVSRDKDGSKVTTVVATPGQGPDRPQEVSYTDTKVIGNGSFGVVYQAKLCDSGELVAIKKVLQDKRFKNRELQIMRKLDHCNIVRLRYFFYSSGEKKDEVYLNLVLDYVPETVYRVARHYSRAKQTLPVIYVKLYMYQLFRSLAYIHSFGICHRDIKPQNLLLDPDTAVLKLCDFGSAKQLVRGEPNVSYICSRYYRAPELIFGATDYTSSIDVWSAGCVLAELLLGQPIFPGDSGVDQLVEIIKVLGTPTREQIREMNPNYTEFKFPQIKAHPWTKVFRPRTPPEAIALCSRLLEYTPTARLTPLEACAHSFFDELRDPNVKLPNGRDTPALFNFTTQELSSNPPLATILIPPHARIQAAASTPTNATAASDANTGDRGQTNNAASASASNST

SMILES | % Survival [1, 5] | % Survival [1, 6] | % Survival [1, 7] | % Survival [1, 8] | % Survival [1, 9] | % Survival [1, 10] | neuroprotection against LK-induced neuronal death, in words [1] | protection at doses lower than 1 μM compared with 1 μM [1] | inhibition of GSK3β [2] | death of cultured neurons induced by a variety of different apoptotic stimuli [3] | toxicity to cultured neurons ([3]; at higher concentrations, Johnson et al., 2005, Chen et al., 2008) | behavioral performance in mice administered with 3-nitropropionic acid [4] | striatal degeneration in mice administered with 3-nitropropionic acid [4] | % Survival ([1]; Table 4, 25 μM in LK medium, % of survival in HK control cultures, LK alone 48.16±8.44%, listed as HSB-) | protection against LK-induced neuronal death (FIG. 1) ([1]; 25 μM, 24 h, phase contrast microscopy, DAPI-staining, TUNEL-staining)
O=C1Nc2ccccc2O/C1=C\c1cc(Br)cc(Br)c1 [ASK-1] | 75.3 ± 10.56% | 68.8 ± 12.99% | 69.1 ± 7.56% | 75.3 ± 10.56% | 68.8 ± 12.99% | 69.1 ± 7.56% | lack of neuroprotection | – | – | – | – | – | – | – | –
S=C1Nc2ccccc2OC1=Cc1cccs1 [ASK-8] | – | 60.8 ± 2.62% | 39.3 ± 7.78% | 73.3 ± 0.79 % | 60.8 ± 2.62% | 39.3 ± 7.78% | inactive | lower | – | – | – | – | – | – | –
CN1C(=S)C(=Cc2ccc[nH]2)Oc2ccccc21 [ASK-9] | – | 70.2 ± 5.32% | 65.1 ± 5.63% | 84.5% and 84.5 ± 3.30 % | 70.2 ± 5.32% | 65.1 ± 5.63% | – | lower | – | – | – | – | – | – | –
COc1ccc(OC)c(C=C2Oc3ccccc3NC2=S)c1 [ASK-11] | 73.8 ± 2.31% | 90.7 ± 14.50 % | 74.0 ± 3.59% | 73.8 ± 2.31% | 90.7% and 90.7 ± 14.50 % | 74.0 ± 3.59% | significant level of protection | – | – | – | – | – | – | – | –
O=C1Nc2ccc(I)cc2C1=Cc1cc(Br)c(O)c(Br)c1 [GW5074, 5-Iodo-3-[(3′,5′-dibromo-4′-hydroxyphenyl)methylene]-2-indolinone] | – | – | – | – | – | – | – | – | inhibits GSK3β weakly | completely inhibits | display toxicity | improves behavioral performance | prevents striatal degeneration | – | –
CC(=O)Oc1c(Br)cc(/C=C2\Oc3ccc([N+](=O)[O-])cc3NC2=O)cc1Br [HSB-1] | 58.8 ± 10.31% | – | 63.5 ± 9.34% | 58.8 ± 10.31% | – | 63.5 ± 9.34% | – | – | – | – | – | – | – | – | –
CC(=O)Oc1c(Br)cc(/C=C2\Oc3ccc(Cl)cc3NC2=O)cc1Br [HSB-2] | 44.1 ± 23.42% | 62.3 ± 15.64% | – | 44.1 ± 23.42% | 62.3 ± 15.64% | – | – | – | – | – | – | – | – | – | –
CC(=O)Oc1c(Br)cc(/C=C2\Oc3ccc(C)cc3NC2=O)cc1Br [HSB-3] | 56.9 ± 11.54% | 59.6 ± 11.97% | – | 56.9 ± 11.54% | 59.6 ± 11.97% | 97.4 ± 12.98 % | – | – | – | – | – | – | – | ~97% | –
Cc1ccc2c(c1)NC(=O)/C(=C/c1ccsc1)O2 [HSB-4] | – | 60.3 ± 4.47% | 61.0 ± 3.58% | 65.0 ± 4.34% | 60.3 ± 4.47% | 61.0 ± 3.58% | inactive | lower | – | – | – | – | – | – | –
CC(=O)Oc1c(Br)cc(/C=C2\Oc3ccc(F)cc3NC2=O)cc1Br [HSB-5] | 65.9 ± 5.08% | 69.3 ± 9.75% | – | 65.9 ± 5.08% | 69.3 ± 9.75% | 95.6 ± 0.98 % | – | – | – | – | – | – | – | – | protective
COc1cc(/C=C2\Oc3ccc(I)cc3NC2=O)cc(OC)c1OC [HSB-6] | 61.9 ± 9.07% | 72.1 ± 19.33% | 59.4 ± 13.11% | 61.9 ± 9.07% | 72.1 ± 19.33% | 59.4 ± 13.11% | lack of neuroprotection | – | – | – | – | – | – | – | –
Cc1ccc2c(c1)NC(=O)/C(=C/c1ccccn1)O2 [HSB-7] | 59.4 ± 13.93% | – | 88.1 ± 2.44 % | 59.4 ± 13.93% | 59.8 ± 6.40% | 88.1 ± 2.44 % | – | – | – | – | – | – | – | – | –
CN(C)c1ccc(C=C2Oc3ccccc3NC2=O)cc1 [HSB-9] | – | 68.8 ± 13.54% | 63.3 ± 1.73% | 67.3 ± 16.43% | 68.8 ± 13.54% | 63.3 ± 1.73% | – | lower | – | – | – | – | – | – | –
O=C1Nc2ccccc2OC1=Cc1cccs1 [HSB-11] | 64.2 ± 12.18% | 68.8 ± 4.26% | 68.8 ± 4.49% | 64.2 ± 12.18% | 68.8 ± 4.26% | 68.8 ± 4.49% | inactive | – | – | – | – | – | – | – | –
O=C1Nc2ccccc2OC1=Cc1ccsc1 [HSB-12] | 76.8 ± 5.79 % | 76.2 ± 3.42 % | 81.4 ± 9.45 % | 76.8 ± 5.79 % | 76.2 ± 3.42 % | 81.4 ± 9.45 % | inactive | – | – | – | – | – | – | – | –
COc1cc(C=C2Oc3ccccc3NC2=O)cc(OC)c1OC [HSB-14] | 63.9 ± 2.26% | 70.0 ± 1.63% | 69.2 ± 5.30% | 63.9 ± 2.26% | 70.0 ± 1.63% | 69.2 ± 5.30% | – | – | – | – | – | – | – | – | –
COc1cc(/C=C2\Oc3ccc(C)cc3NC2=O)cc(OC)c1OC [HSB-15] | 60.7 ± 2.76% | 66.5 ± 9.26% | 63.9 ± 3.32% | 60.7 ± 2.76% | 66.5 ± 9.26% | 63.9 ± 3.32% | – | – | – | – | – | – | – | – | –
O=C1Nc2ccccc2OC1=Cc1c[nH]c2ccccc12 [HSB-20] | 52.2 ± 10.11% | 62.5 ± 3.14% | 48.3 ± 12.11% | 52.2 ± 10.11% | 62.5 ± 3.14% | 48.3 ± 12.11% | – | – | – | – | – | – | – | – | –

Reference: patent US8680094B2, “1, 4-benzoxazine compounds and derivatives thereof as therapeutic drugs for the treatment of neurodegenerative conditions” (Board of Regents, The University of Texas System, priority 2008, dated 2014)
